Results reported in publication PMC9597486, “Screening of protonstatin-1 (PS-1) analogs for improved inhibitors of plant plasma membrane H^+-ATPase activity” (Frontiers in Plant Science, 2022).

Biological target: T1, AHA2 central loop (recombinant His-AHA2 central loop) (Arabidopsis thaliana, UniProt P19456)
T1 construct: cytosolic central loop domain only, His-tagged recombinant, fluorescently labelled with NanoTemper RED protein labelling kit
T1 sequence (P19456 292-643 limits assumed): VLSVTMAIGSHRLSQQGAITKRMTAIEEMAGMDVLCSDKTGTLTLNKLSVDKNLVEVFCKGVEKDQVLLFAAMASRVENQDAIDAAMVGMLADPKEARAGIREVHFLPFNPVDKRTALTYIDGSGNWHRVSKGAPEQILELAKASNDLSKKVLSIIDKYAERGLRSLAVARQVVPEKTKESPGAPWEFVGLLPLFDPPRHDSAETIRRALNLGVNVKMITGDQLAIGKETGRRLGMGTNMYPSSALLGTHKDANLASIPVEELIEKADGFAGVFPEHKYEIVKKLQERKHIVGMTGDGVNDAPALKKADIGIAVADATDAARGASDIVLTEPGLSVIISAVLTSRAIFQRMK
Test: microscale thermophoresis
Type: binding

## O=C1NC(=S)S/C1=C\c1ccco1 [PS-1, (Z)-5-(furan-2-ylmethylene)-2-thioxothiazolidin-4-one]
  Kd: 4880 ± 660 nM

## O=C1NC(=S)S/C1=C\c1ccc[nH]1 [compound 27, (Z)-5-((1H-pyrrol-2-yl)methylene)-2-thioxothiazolidin-4-one]
  Kd: 550 ± 50 nM
